From patent US11377473B2, “Albumin-binding prodrugs of auristatin E derivatives” (priority 2017, dated 2022) come the findings set out here.

Data set [1] relates to NSCLC xenograft model LXFA737. Nature of the data set: Human non-small cell lung cancer model LXFA737, small tumors. The format is in vivo, NMRI nude mice. The settings on record: for p, antitumor efficacy versus auristatin E: 8 times twice weekly, day 56 and 63. The source says:
Mice were kept under a 14-hour light/10-hour dark, artificial light cycle. The animals were fed with autoclaved Teklad Global 19% Protein Extruded Diet (T.2019S.12) from Envigo RMS SARL and had access to sterile filtered and acidified (pH 2.5) tap water which was changed twice weekly. Feed and water were provided ad libitum. […] Animals were routinely monitored twice daily on working days and daily on Saturdays and Sundays. Starting on day 0, animals were weighed twice a week. Relative body weights (RBW) of individual animals were calculated by dividing the individual absolute body weight on day X (BWx) by the individual body weight on the day of randomization multiplied by 100%. […] Tumor volumes were calculated according to the following equation: […]
Statistical analysis was only carried out if at least 50% of the initially randomized animals in a relevant group were still alive. Comparisons between test groups were carried out for the same days. By convention, p-values ≤0.05 indicate significance of tumor inhibition. Statistical calculations were performed using GraphPad Prism bioanalytic software (San Diego Calif. USA, www.graphpad.com).
The evaluation of auristatin E and the albumin-binding auristatin E derivative AE-Keto-Sulf07 in a human non-small cell lung cancer model LXFA737 was carried out as described in the general procedure for patient-derived xenograft models.
Sample preparation: 38 mg weighed in a 30 mL vial dissolved in 23.8 mL 50/50 tert-butanol/10 mM sodium citrate buffer, 5% sucrose—pH 6; 1.2 mL were aliquoted in 4 mL vials.
The evaluation of auristatin E and the albumin-binding auristatin E derivative AE-Ester-Sulf07 in a human non-small cell lung cancer model LXFA737 was carried out as described in the general procedure for patient-derived xenograft models.

For data set [2], the system named is malignant melanoma cancer model A375. Briefly: Human malignant melanoma cancer model A375, large tumors. The class given is in vivo, NMRI nude mice. As for the experimental part: (§1) Feed and water were provided ad libitum. […] Identification used: ear mark and cage labels. […] Tumor volumes were calculated according to the following equation: […]
The evaluation of auristatin E and the albumin-binding auristatin E derivative AE-Keto-Sulf07 in a human malignant melanoma cancer model A375 was carried out as described in the general procedure for cell-line-derived xenograft models.
Stock solutions were prepared as follows: • 1) 7 mice, 28 g average weight, 310 mm^3 average median tumor volume on day of randomization: 0.3 mg/kg auristatin E TFA salt (AE equiv.) dosed twice weekly for 3 weeks on day 1, 6, 9, 13, 16≡0.35 mg/kg≡7.1 μg/20 g mouse.
The evaluation of auristatin E and the albumin-binding auristatin E derivative AE-Ester-Sulf07 in a human malignant melanoma cancer model A375 was carried out as described in the general procedure for cell-line-derived xenograft models.
Based on the dosing experience in the RXF631 xenograft model, stock solutions were prepared as follows: • 1) 7 mice, 28 g average weight, 310 mm^3 average median tumor volume on day of randomization: 0.3 mg/kg auristatin E TFA salt (AE equiv.) dosed twice weekly for 3 weeks on day 1, 6, 9, 13, 16=0.35 mg/kg≡7.1 μg/20 g mouse.

Data set [3] has as its system human ovarian carcinoma model A2780. Nature of the data set: Human ovarian carcinoma model A2780, large tumors. The class given is in vivo, NMRI nude mice. As for the experimental part: as §1
(§2) The evaluation of auristatin E and the albumin-binding auristatin E derivative AE-Keto-Sulf07 in a human ovarian carcinoma model A2780 was carried out as described in the general procedure for cell-line-derived xenograft models.
The evaluation of auristatin E and the albumin-binding auristatin E derivative AE-Ester-Sulf07 in a human ovarian carcinoma model A2780 was carried out as described in the general procedure for cell-line-derived xenograft models.

Data set [4] concerns human tumor xenograft models. Briefly: Antitumor activity in human tumor xenograft mice models (overall statement). The class given is in vivo, nude mice. The settings on record: starting tumor volumes approximately 130-170 mm^3 and up to approximately 380 mm^3. (A xenograft is tissue or cells of one species grown in another, often human tumour cells in immunodeficient mice.)
In data set [5] the test system is human ovarian carcinoma model A2780. Nature of the data set: Human ovarian carcinoma model A2780, small tumors. The class given is in vivo, NMRI nude mice. The protocol: as §1, §2
The evaluation of the albumin-binding auristatin E derivative AE-Ester-Sulf07 in a human ovarian carcinoma model A2780 was carried out as described in the general procedure for cell-line-derived xenograft models.
AE-Ester-Sulf07 was also tested in the same ovarian carcinoma model A2780 with smaller tumors and a different dosing scheme to diminish the side effects of the drug on the skin of the mice. AE-Ester-Sulf07 was dosed at 3.8 mg/kg four times once weekly, showing again a statistically significant improved antitumor effect compared to the control (p<0.01 from day 7 to 14). Mice treated with AE-Ester-Sulf07 in the new dosing regimen achieved partial remission from day 12 until day 35 and complete remission from day 39 until the end of the study on day 70.

Where [6] appears, read: 2.4 mg/kg five times twice weekly.
Setting [7] is: 1.9 mg/kg eight times twice weekly.
Setting [8] is: 0.3 mg/kg eight times twice weekly.

Consider “2-(2-(1-(4-(((1S,2R)-2-((2R,3R)-3-((S)-1-((3R,4R,5S)-4-((S)-2-((R)-2-(dimethylamino)-3-methylbutanamido)-N,3-dimethylbutanamido)-3-methoxy-5-methylheptanoyl)pyrrolidin-2-yl)-3-methoxy-2-methylpropanamido)-1-phenylpropoxy)carbonyl)phenyl)ethylidene)hydrazine-1-carbonyl)-5-(6-(2,5-dioxo-2,5-dihydro-1H-pyrrol-1-yl)hexanamido)benzenesulfonic acid [AE-Ester-Sulf07]”, for which the animals lost result in data set [1] (2.4 mg/kg 8 times twice weekly) was “five mice had to be euthanized due to a combination of body weight loss and skin lesions”; in data set [2] (2.4 mg/kg, 2% polysorbate 80 group) it was “Only one mouse”; in data set [3] (setting [7]), “four animals had to be removed from the study due to tumor necrosis”; in data set [5] (3.8 mg/kg four times once weekly) it was “Three AE-Ester-Sulf07 treated mice showed body weight loss and had to be sacrificed on day 59”. The tumor response entry in data set [1] (2.4 mg/kg 8 times twice weekly, reached on day 21, until end of study on day 74) is “complete tumor remission”; in data set [2] (2.4 mg/kg five times twice weekly, day 16 until end of study on day 37), “almost complete remission”; in data set [3] (1.9 mg/kg eight times twice weekly, day 19 until day 51) it was “partial remission (partial remission >10-50%)”; in data set [3] (1.9 mg/kg eight times twice weekly, day 54 until end of study on day 103), “complete remission (complete remission <10%)”; in data set [5] (3.8 mg/kg four times once weekly, day 12 until day 35), “partial remission (partial remission >10-50%)”; in data set [5] (3.8 mg/kg four times once weekly, day 39 until end of study on day 70), “complete remission (complete remission <10%)”. For the same molecule, the “p, antitumor efficacy versus auristatin E” value in data set [1] (2.4 mg/kg versus auristatin E 0.3 mg/kg) is less than 0.05; in data set [3] (1.9 mg/kg versus auristatin E 0.3 mg/kg, eight times twice weekly, day 37 to day 40), less than 0.001. Further, the tumor volume entry in data set [1] (2.4 mg/kg, until end of study on day 74) was “unmeasurable level”. The “p, antitumor improvement versus auristatin E” value in data set [2] (2.4 mg/kg (2% polysorbate 80 or 4% 2-HPßCD) versus auristatin E 0.3 mg/kg, five injections twice weekly, day 9 to 33) was less than 0.01. Further, the body weight change result in data set [2] (setting [6]) is given as “No significant body weight change compared to the control”. Also, the side effects entry in data set [2] (setting [6]) is “wounds due to biting and scratching were observed starting from day 9”. The minimum tumor volume in data set [2] (2.4 mg/kg reconstituted with 2% polysorbate 80, day 23) is 4 mm^3; in data set [2] (2.4 mg/kg reconstituted with 4% 2-HPßCD, day 26) it was 1 mm^3. Also, in data set [3] (setting [7]), the body weight result is reported as “no sign of body weight loss compared to the control”. The “antitumor activity in all human tumor xenografts evaluated” value (“antitumor activity” for short) in data set [4] was “partial and complete remissions”. Further, the “p, antitumor effect compared to the control” value in data set [5] (3.8 mg/kg four times once weekly, day 7 to 14) is less than 0.01.

In the case of `CC[C@H](C)[C@@H]([C@@H](CC(=O)N1CCC[C@H]1[C@H](OC)[C@@H](C)C(=O)N[C@H](C)C(=NNC(=O)c1ccc(NC(=O)CCCCCN2C(=O)C=CC2=O)cc1S(=O)(=O)O)c1ccccc1)OC)N(C)C(=O)[C@@H](NC(=O)[C@H](C(C)C)N(C)C)C(C)C` [AE-Keto-Sulf07, 2-(2-((R)-2-((2R,3R)-3-((S)-1-((3R,4S,5S)-4-((S)-2-((S)-2-(dimethylamino)-3-methylbutanamido)-N,3-dimethylbutanamido)-3-methoxy-5-methylheptanoyl)pyrrolidin-2-yl)-3-methoxy-2-methylpropanamido)-1-phenylpropylidene)hydrazine-1-carbonyl)-5-(6-(2,5-dioxo-2,5-dihydro-1H-pyrrol-1-yl)hexanamido)benzenesulfonic acid], the tumor response result in data set [1] (4.5 mg/kg 8 times twice weekly, reached on day 28, until end of study on day 74) was “complete tumor remission”; in data set [2] (6.5 mg/kg five times twice weekly, day 19 until end of study on day 37), “complete remission (complete remission <10%)”; in data set [3] (4.5 mg/kg eight times twice weekly, day 26 until end of study on day 103), “complete remission (complete remission <10%)”; in data set [5] (3.0 and 5.0 mg/kg eight times twice weekly, day 9 until end of study on day 60), “partial remission (partial remission >10-50%)”. The “p, antitumor efficacy versus auristatin E” value in data set [1] (4.5 mg/kg (polysorbate 80 and 2-HPßCD buffers) versus auristatin E 0.3 mg/kg) was less than 0.01; in data set [5] (3.0 and 5.0 mg/kg versus auristatin E 0.3 mg/kg, eight times twice weekly, day 7 to day 29) it was less than 0.01. Further, the animals lost result was “two mice had to be sacrificed for general bad conditions” in data set [1] (4.5 mg/kg administered in polysorbate 80), “two mice had to be sacrificed for general bad conditions” in data set [2] (6.5 mg/kg five times twice weekly), “One mouse from the higher dose group was found dead on day 35” in data set [5] (higher dose group 5.0 mg/kg) and “one from the lower dose group had to be sacrificed on day 42 for general bad conditions” in data set [5] (lower dose group 3.0 mg/kg). The “maximum body weight loss” value in data set [1] (4.5 mg/kg in 2-HPßCD, day 32) is −7%. For the same molecule, the tumor volume result in data set [1] (4.5 mg/kg, until end of study on day 74, independently of the buffer) was “unmeasurable level”. In addition, the “p, antitumor effect versus auristatin E” value in data set [2] (6.5 mg/kg versus auristatin E 0.3 mg/kg, five injections twice weekly, day 9 until day 33) is less than 0.01; in data set [3] (4.5 mg/kg versus auristatin E 0.3 mg/kg, eight times twice weekly, day 22 to day 40), less than 0.001. The molecule further gave a minimum tumor volume in data set [2] (6.5 mg/kg, day 28) of 1 mm^3. Also, in data set [2] (6.5 mg/kg, day 37), the “tumor volume at the end of the study” value is listed as approximately 14 mm^3. Moreover, the “transient body weight loss” value in data set [2] (6.5 mg/kg, reached on day 21) is given as 13%; in data set [5] (3.0 and 5.0 mg/kg, after the first treatment), approximately 2%. In addition, the body weight result in data set [3] (4.5 mg/kg eight times twice weekly) was “only a slightly reduced body weight growth compared to the control”. In data set [4], the “antitumor activity” value is “partial and complete remissions”. In addition, the “tumor response (transient)” value was “complete remission (complete remission <10%)” in data set [5] (higher dose 5.0 mg/kg, day 25 to day 51) and “complete remission (complete remission <10%)” in data set [5] (lower dose 3.0 mg/kg, day 23 to day 35).

Turning to `CC[C@H](C)[C@@H]([C@@H](CC(=O)N1CCC[C@H]1[C@H](OC)[C@@H](C)C(=O)N[C@H](C)[C@@H](O)c1ccccc1)OC)N(C)C(=O)[C@@H](NC(=O)[C@H](C(C)C)N(C)C)C(C)C` [auristatin E], the tumor response entry was “stable disease (stable disease >75-125%)” in data set [1] (0.3 mg/kg 8 times twice weekly, temporarily, day 21 to day 42) and “stable disease (stable disease >75-125%)” in data set [2] (0.3 mg/kg five times twice weekly, initial, until day 14). Moreover, the antitumor effect result in data set [3] (setting [8]) and in data set [5] (setting [8]) was “did not achieve any antitumor effect” throughout. In addition, the “antitumor activity” value in data set [4] is “principally inactive”.
